In patent US20100105758A1 (Centre de Recherche Public de la Sante, priority 2006, published 2010):
“Also recorded” adds a separate entry of the source.

Key:
[1] = test system: THP-1-derived macrophages; experiment: MMP-9 secretion by THP-1-derived macrophages, gelatin zymography and densitometry; assay type: cell-based; settings: for MMP-9 secretion (zymography), modulators of Ado metabolism: added alone or in combination, Ado 10 μM, EHNA 10 μM, DIP 10 μM
Experimental: Cells were incubated for 15 min with increasing concentrations of Ado and 10 μM EHNA before differentiation with 150 nM PMA for 48 hours. […] Concentrations of 10 μM Ado and 10 μM EHNA were used in further experiments. […] FIG. 2. […] THP-1 cells were treated for 15 min with Ado and 10 μM EHNA or vehicle before differentiation to macrophages with 150 nM PMA for 48 hours. EHNA, which inhibits Ado deaminase, and DIP, which inhibits Ado transport, were used to enhance endogenous Ado concentration. Gelatinase activity was measured in cell-free conditioned medium by zymography and densitometry. A. A representative zymogram is shown. […] C. Time-course experiment. […] FIG. 3. […] A. THP-1 cells were treated for 15 min with 10 μM Ado and 10 μM EHNA or vehicle before differentiation to macrophages with 150 nM PMA for 48 hours. […] B. THP-1 cells were treated for 15 min with 0.1, 1 or 10 μM of Ado receptors agonists (CPA, A1-specific; CGS21680, A2a-specific; IB-MECA, A3-specific). […] Gelatinase activity was assessed in conditioned medium. […] C. […] Cells were transfected with siRNA specific for A2a, A2b or A3 Ado receptors, incubated for 48 hours to achieve down-regulation of Ado receptors expression, treated for 15 min with 10 μM Ado and 10 μM EHNA or vehicle before differentiation to macrophages with 150 nM PMA for 48 hours. Conditioned medium was analysed by gelatin zymography. […] Cell culture. All cell culture reagents were from Lonza (Verviers, Belgium) unless specified otherwise. Peripheral venous blood was obtained from healthy volunteers. Peripheral blood mononuclear cells were obtained by Ficoll gradient. Monocytes were purified by negative selection using the Monocyte Isolation Kit II (Myltenyi Biotec GmbH, Bergisch Gladbach, Germany). […] Macrophages were incubated for 15 minutes with Ado/EHNA (10 μmol/L) or vehicle, then LPS (100 ng/ml) or vehicle was added and cells were incubated for another 24 hours before harvesting. Cells from the monocyte-like line THP-1 (ATCC, LGC Promochem, Teddington, UK) were propagated at 37° C.-5% CO2 in RPMI 1640 medium supplemented with L-glutamine (2 mM), Penicillin (100 Units/ml), Streptomycin (100 μg/ml), non-essential amino acids solution (1 μM), sodium pyruvate (1 mM), and 10% heat-inactivated fetal calf serum (FCS) (Eurobio, Les Ulys, France). For experiments, FCS in culture medium was reduced to 1%. Cells were treated for 15 min with EHNA vehicle (DMSO), Ado (0.01 to 100 μM), Ado receptors agonists (0.1 to 10 μM), EHNA (10 μM) or Dipyridamole (DIP) (10 μM). Cells were then differentiated into macrophages with 150 nM phorbol myristate actetate (PMA) for 24 hours. Macrophages were subsequently treated with LPS (1 to 1000 ng/ml), fMLP (10^−7 M) or H2O2 (10 mM) for another 24 hours. Analysis of gelatinase activity. Gelatin zymography was performed on culture supernatants to assess secreted MMP-9 activity. Briefly, conditioned medium was loaded on SDS-polyacrylamide gels containing 0.2% gelatin under non reducing conditions. After electrophoresis, gels were washed and incubated overnight at 37° C. in assay buffer (50 mM Tris-HCl, pH 7.6, 200 mM NaCl, 5 mM CaCl2, and 0.02% Brij35). Subsequently, gels were stained in 0.1% Coomassie Blue and destained in 25% ethanol/8% acetic acid. Densitometry was achieved using the Gel Logic 2200 Digital Imaging system and Aida Software (Kodak, Zavemtem, Belgium).

THP-1 monocytes = experiment: Migration assay, modified Boyden chamber coated with gelatin B, MCP-1 gradient; assay type: cell-based; settings: for inhibition of Ado-enhanced cell migration: pre-incubation with TIMP-1 10 ng/mL or GM6001 10 nM or 1 μM
Experimental: Infiltration of monocytes/macrophages into the myocardium is a hallmark of ventricular remodelling post MI. Cell migration is facilitated by degradation of the ECM by MMP-9. We therefore tested whether the increase in MMP-9 secretion by Ado could improve monocytes migration along a gradient of MCP-1. For this purpose, the top of a modified Boyden chamber was coated with gelatin B and MCP-1 was added in the bottom compartment. Monocytes were treated with Ado before seeding on the microporous membrane of the chamber. […] This effect was inhibited by the synthetic MMP inhibitor GM6001 and the endogenous MMP-9 inhibitor TIMP-1 (FIG. 4).
FIG. 4. Ado increases monocytes migratory capacity. THP-1 monocytes were treated for 24 hours with 10 μM Ado and 10 μM EHNA or vehicle before seeding on the microporous membrane of a modified Boyden chamber pre-coated with gelatin B. 10 ng/mL MCP-1 was added in the bottom compartment. When specified, cells were pre-incubated with TIMP-1 (10 ng/mL) or GM6001 (10 nM or 1 μM) before seeding on the membrane. Cell migration was quantified by fluorescence after 24 hours. […] Results are mean±SD (n=5). * P<0.05 vs no Ado.
Migration assay. Migratory capacity of THP-1 monocytes was studied using a Transwell® system with polycarbonate microporous membranes (5 μm pore size, 24-well chamber, Costar, Lowell, USA). Membranes were coated with a 2% gelatin B solution and allowed to dry at room temperature for 2 hours. MCP-1 (10 ng/mL) was added in the bottom compartment. THP-1 monocytes were cultured in serum- and antibiotic-free medium with or without 10 μM Ado and 10 μM EHNA for 24 hours. Cells were pre-incubated for 30 min with GM 6001 (10 nM or 1 μM) or TIMP-1 (10 ng/mL) before seeding into the upper compartment at a concentration of 7.5×10^4 cells per well. After 24 hours, cells that migrated through the membrane were detached, lysed and stained by the CyQuant GR® dye (Invitrogen) for 15 min. Fluorescence was read with a POLARstar Optima (BMG LABTECH, Champigny-sur-Marne, France) microplate reader (Xex=492 nm, kem=520 nm).

MMPs = settings: given 24-72 hours post MI; cited from earlier work
[2] = test system: THP-1-derived macrophages; experiment: Ado receptor mRNA expression in THP-1-derived macrophages, quantitative PCR; assay type: cell-based; settings: 10 μM Ado and 10 μM EHNA, PMA 48 hours
Experimental: FIG. 3. […] A. THP-1 cells were treated for 15 min with 10 μM Ado and 10 μM EHNA or vehicle before differentiation to macrophages with 150 nM PMA for 48 hours. […] B. THP-1 cells were treated for 15 min with 0.1, 1 or 10 μM of Ado receptors agonists (CPA, A1-specific; CGS21680, A2a-specific; IB-MECA, A3-specific). […] Gelatinase activity was assessed in conditioned medium. […] C. […] Cells were transfected with siRNA specific for A2a, A2b or A3 Ado receptors, incubated for 48 hours to achieve down-regulation of Ado receptors expression, treated for 15 min with 10 μM Ado and 10 μM EHNA or vehicle before differentiation to macrophages with 150 nM PMA for 48 hours. Conditioned medium was analysed by gelatin zymography.
Cell culture. All cell culture reagents were from Lonza (Verviers, Belgium) unless specified otherwise. Peripheral venous blood was obtained from healthy volunteers. Peripheral blood mononuclear cells were obtained by Ficoll gradient. Monocytes were purified by negative selection using the Monocyte Isolation Kit II (Myltenyi Biotec GmbH, Bergisch Gladbach, Germany). […] Macrophages were incubated for 15 minutes with Ado/EHNA (10 μmol/L) or vehicle, then LPS (100 ng/ml) or vehicle was added and cells were incubated for another 24 hours before harvesting. […]
(§1) Real time quantitative PCR.

[3] = test system: primary human macrophages; experiment: MMP-9 mRNA expression in primary macrophages, quantitative PCR; assay type: cell-based; settings: Ado and EHNA 10 μmol/L each, 24 hours
Experimental: (§2) Cell culture. All cell culture reagents were from Lonza (Verviers, Belgium) unless specified otherwise. Peripheral venous blood was obtained from healthy volunteers. Peripheral blood mononuclear cells were obtained by Ficoll gradient. Monocytes were purified by negative selection using the Monocyte Isolation Kit II (Myltenyi Biotec GmbH, Bergisch Gladbach, Germany). […] Macrophages were incubated for 15 minutes with Ado/EHNA (10 μmol/L) or vehicle, then LPS (100 ng/ml) or vehicle was added and cells were incubated for another 24 hours before harvesting. Cells from the monocyte-like line THP-1 (ATCC, LGC Promochem, Teddington, UK) were propagated at 37° C.-5% CO2 in RPMI 1640 medium supplemented with L-glutamine (2 mM), Penicillin (100 Units/ml), Streptomycin (100 μg/ml), non-essential amino acids solution (1 μM), sodium pyruvate (1 mM), and 10% heat-inactivated fetal calf serum (FCS) (Eurobio, Les Ulys, France). For experiments, FCS in culture medium was reduced to 1%. Cells were treated for 15 min with EHNA vehicle (DMSO), Ado (0.01 to 100 μM), Ado receptors agonists (0.1 to 10 μM), EHNA (10 μM) or Dipyridamole (DIP) (10 μM). Cells were then differentiated into macrophages with 150 nM phorbol myristate actetate (PMA) for 24 hours. Macrophages were subsequently treated with LPS (1 to 1000 ng/ml), fMLP (10^−7 M) or H2O2 (10 mM) for another 24 hours.
as §1

[4] = in combination with lidocaine or primary angioplasty; cited from earlier work
neutrophils = settings: through A2a receptor; cited from earlier work
[5] = test system: THP-1-derived macrophages; experiment: MMP-9 mRNA expression in THP-1-derived macrophages, quantitative PCR; assay type: cell-based; settings: THP-1 cells, after 48 hours of differentiation
Experimental: FIG. 2. […] THP-1 cells were treated for 15 min with Ado and 10 μM EHNA or vehicle before differentiation to macrophages with 150 nM PMA for 48 hours. EHNA, which inhibits Ado deaminase, and DIP, which inhibits Ado transport, were used to enhance endogenous Ado concentration. Gelatinase activity was measured in cell-free conditioned medium by zymography and densitometry. A. A representative zymogram is shown. […] C. Time-course experiment.
as §2, with “For experiments, FCS in culture medium was reduced to 1%. Cells were treated for 15 min with EHNA vehicle (DMSO), Ado (0.01 to 100 μM), Ado receptors agonists (0.1 to 10 μM), EHNA (10 μM) or Dipyridamole (DIP) (10 μM). Cells were then differentiated into macrophages with 150 nM phorbol myristate actetate (PMA) for 24 hours. Macrophages were subsequently treated with LPS (1 to 1000 ng/ml), fMLP (10^−7 M) or H2O2 (10 mM) for another 24 hours.” left out
as §1

[6] = test system: primary human macrophages; experiment: MMP-9 secretion by primary macrophages, ELISA in conditioned medium; assay type: cell-based; settings: Ado and EHNA 10 μmol/L each, 15 min then 24 hours, with or without LPS 100 ng/ml
Experimental: FIG. 1. […] Cell culture. All cell culture reagents were from Lonza (Verviers, Belgium) unless specified otherwise. Peripheral venous blood was obtained from healthy volunteers. Peripheral blood mononuclear cells were obtained by Ficoll gradient. Monocytes were purified by negative selection using the Monocyte Isolation Kit II (Myltenyi Biotec GmbH, Bergisch Gladbach, Germany). […] Macrophages were incubated for 15 minutes with Ado/EHNA (10 μmol/L) or vehicle, then LPS (100 ng/ml) or vehicle was added and cells were incubated for another 24 hours before harvesting. Cells from the monocyte-like line THP-1 (ATCC, LGC Promochem, Teddington, UK) were propagated at 37° C.-5% CO2 in RPMI 1640 medium supplemented with L-glutamine (2 mM), Penicillin (100 Units/ml), Streptomycin (100 μg/ml), non-essential amino acids solution (1 μM), sodium pyruvate (1 mM), and 10% heat-inactivated fetal calf serum (FCS) (Eurobio, Les Ulys, France). For experiments, FCS in culture medium was reduced to 1%. Cells were treated for 15 min with EHNA vehicle (DMSO), Ado (0.01 to 100 μM), Ado receptors agonists (0.1 to 10 μM), EHNA (10 μM) or Dipyridamole (DIP) (10 μM). Cells were then differentiated into macrophages with 150 nM phorbol myristate actetate (PMA) for 24 hours. Macrophages were subsequently treated with LPS (1 to 1000 ng/ml), fMLP (10^−7 M) or H2O2 (10 mM) for another 24 hours. […] ELISA.

## CCCCCC[C@@H]([C@@H](C)O)n1cnc2c(N)ncnc21 (racemic) [EHNA]
[1]; PMA 48 hours
  MMP-9 secretion (zymography), modulators of Ado metabolism: triggered MMP-9 secretion

## OCCN(CCO)c1nc(N2CCCCC2)c2nc(N(CCO)CCO)nc(N3CCCCC3)c2n1 [DIP, Dipyridamole]
[1]; PMA 48 hours
  MMP-9 secretion (zymography), modulators of Ado metabolism: triggered MMP-9 secretion

## CNC(=O)[C@H](Cc1c[nH]c2ccccc12)NC(=O)[C@@H](CC(=O)NO)CC(C)C [GM6001, (R)-N-4-Hydroxy-N1-[(S)-2-(1H-indol-3-yl)-1-methylcarbamoly-ethyl]-2-isobutyl-succinamide]
THP-1 monocytes
  inhibition of Ado-enhanced cell migration: partly prevented; also recorded: inhibited

## CNC(=O)[C@H]1O[C@@H](n2cnc3c(NCc4cccc(I)c4)ncnc32)[C@H](O)[C@@H]1O [IB-MECA, 1-deoxy-1-[6-[[(3-iodophenyl)methyl]amino]-9H-purine-9-yl]-N-methyl-Dribofuranuronamide]
[1]; 0.1, 1 or 10 μM agonist for 15 min, EHNA omitted, PMA 48 hours
  MMP-9 secretion with Ado receptor agonists: increase MMP-9 secretion to the same extent as Ado

## COc1ccc(C(=O)Nc2ccc(S(=O)(=O)NC(CC#CCN3CCOCC3)C(=O)O)cc2)cc1 (stereo not shown) [PG-116800]
MMPs
  outcome after MI: did not improve outcome
  prevention of LV remodelling after MI: failed to prevent LV remodelling

## Nc1ncnc2c1ncn2[C@@H]1O[C@H](CO)[C@@H](O)[C@H]1O [adenosine]
[2]
  A2b receptor expression (mRNA): more than two-fold increase
  A3 receptor expression (mRNA): more than two-fold increase
[3]
  MMP-9 mRNA expression: increased
[4]
  cardiac function of patients with MI: improved cardiac function
[1]; 100 μM Ado with 10 μM EHNA, 15 min before differentiation with 150 nM PMA for 48 hours
  increase of MMP-9 production: 3 fold
[1]; PMA 48 hours
  MMP-9 secretion (zymography), modulators of Ado metabolism: triggered MMP-9 secretion
[1]; time-course experiment, zymography of culture medium
  incubation period necessary to reproduce the effect of Ado on MMP-9: at least 18 hours
neutrophils
  MMP-9 secretion by neutrophils: inhibits MMP-9 secretion
[5]
  MMP-9 mRNA expression: more than two-fold increase
THP-1 monocytes; 10 μM Ado and 10 μM EHNA for 24 hours, MCP-1 10 ng/mL, migration after 24 hours
  cell migration through the gelatin layer: enhanced cell migration
[6]
  MMP-9 secretion in cell supernatant as measured by ELISA: mild but significant increase
[6]; listed as Ado
  MMP-9 secretion in cell supernatant as measured by ELISA: significantly increased

## TIMP-1: recombinant human protein TIMP-1 (R&D Systems), endogenous MMP-9 inhibitor
THP-1 monocytes
  inhibition of Ado-enhanced cell migration: partly prevented; also recorded: inhibited
